Measured values taken from patent US20220306603A1, “TARGETING DNA REPAIR IN TUMOR CELLS VIA INHIBITION OF ERCC1-XPF” (The Governors of the University of Alberta, priority 2019, published 2022).
“Also recorded” adds a separate entry of the source.

Columns and labels:
[1] = Hepatocyte stability in vitro; type: in vitro ADME; settings: Table 8
[2] = system: five CYP450 tested enzymes
ERCC1-XPF = biological target: T1, ERCC1-XPF (Homo sapiens, UniProt Q92889); experiment: Microplate fluorescence incision assay of ERCC1-XPF endonuclease activity; type: biochemical
T1 construct: His6; made in house; host or cells: E. coli BL21 (DE3)
T1 sequence (Q92889 1-916): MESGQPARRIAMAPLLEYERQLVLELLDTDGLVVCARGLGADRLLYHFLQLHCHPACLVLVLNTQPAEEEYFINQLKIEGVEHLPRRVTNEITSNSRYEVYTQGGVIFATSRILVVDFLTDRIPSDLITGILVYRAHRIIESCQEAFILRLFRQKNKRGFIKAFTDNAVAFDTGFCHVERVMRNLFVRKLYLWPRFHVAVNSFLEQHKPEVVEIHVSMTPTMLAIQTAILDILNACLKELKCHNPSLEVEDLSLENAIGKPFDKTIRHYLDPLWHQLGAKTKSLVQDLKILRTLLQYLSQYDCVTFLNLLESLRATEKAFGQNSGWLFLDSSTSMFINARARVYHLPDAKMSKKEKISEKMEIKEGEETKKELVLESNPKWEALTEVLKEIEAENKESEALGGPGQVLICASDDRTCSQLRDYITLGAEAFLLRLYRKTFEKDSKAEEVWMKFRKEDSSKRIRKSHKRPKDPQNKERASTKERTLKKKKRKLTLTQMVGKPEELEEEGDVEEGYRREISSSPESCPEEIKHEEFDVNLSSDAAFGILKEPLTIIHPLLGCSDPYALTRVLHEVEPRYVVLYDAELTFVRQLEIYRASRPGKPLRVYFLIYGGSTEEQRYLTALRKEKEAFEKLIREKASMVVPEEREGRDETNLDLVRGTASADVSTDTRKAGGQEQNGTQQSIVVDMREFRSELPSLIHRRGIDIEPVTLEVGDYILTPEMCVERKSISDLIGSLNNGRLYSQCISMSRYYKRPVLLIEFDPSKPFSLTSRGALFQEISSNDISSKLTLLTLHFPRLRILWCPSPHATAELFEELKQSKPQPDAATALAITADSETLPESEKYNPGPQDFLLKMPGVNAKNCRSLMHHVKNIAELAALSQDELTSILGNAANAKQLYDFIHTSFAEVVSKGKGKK
Excerpt: This assay has been previously described (29), and utilizes a stem-loop substrate (composed of a 10mer-duplex stem and a 20mer-oligodT single-strand loop), labelled on the 5′-terminus with 6-FAM and 3′ with the quencher dabcyl.
Human ERCC1-XPF wild-type protein was obtained as previously described (29). Basically, the recombinant protein was expressed from a bicistronic plasmid (provided by Dr. Richard Wood, University of Texas MD Anderson Cancer Center, Smithville, Tex.) in the E. coli BL21 (DE3) strain. Since both XPF and ERCC1 contained a polyhistidine (His-6) tag, the proteins extracted from E. coli were incubated with a ProBond Nickel-Chelating Resin (Thermo Fisher Scientific). Protein eluted from the Ni affinity column was subsequently loaded into a Hi-trap heparin column (GE Healthcare). Fractions recovered from the heparin column that contained ERCC1-XPF were dialyzed, concentrated and stored at −80° C. in 10 mM HEPES pH 7.4, 2.5 mM p-mercaptoethanol, 0.01% CHAPS, 0.25 mM EDTA, 50% glycerol and 25 mM NaCl.
A previously described protocol (2,29) was followed.

[3] = Microsomal stability in vitro (human liver microsomes); settings: Table 8
HCT116 cells [4] = experiment: Clonogenic survival assay, cyclophosphamide treatment; type: cell-based, human; settings: cyclophosphamide 0-300 μM; compound 1-4 μM
Protocol: Plates were incubated for another 8 days at 37° C. in a 5% CO2 atmosphere for colony formation. After this period plates were stained with crystal violet, colonies were counted, and plating efficiency and surviving fraction were calculated.

HCT116 cells [5] = experiment: Clonogenic survival assay, UV treatment; type: cell-based, human; settings: 254 nm UV 0-10 J/m^2; compound 0.5-4 μM
Protocol: UV treatment: HCT116 cells (100-800 cells depending on the UV dose) were plated in triplicate in 60-mm petri dishes. The cells were incubated overnight at 37° C. in a humidified atmosphere containing 5% CO2 to allow for cell attachment. […] Medium was removed again, and cells were exposed to increasing doses (0-10 J/m^2) of UV-C radiation and then incubated for a further 10 days in the presence of inhibitor at 37° C. in a 5% CO2 atmosphere to allow for colony formation. After this period plates were stained with crystal violet and colonies were counted using a Colcount instrument (Oxford Optronix, Abingdon UK). Finally, plating efficiency and surviving fraction were calculated.

serum proteins = experiment: ADME screening: serum protein binding; type: in vitro ADME; settings: Table 8
[6] = ADME screening: solubility; type: physicochemical; settings: Table 8
[7] = ADME screening: cell permeability and efflux ratio; settings: Table 8
HCT116 cells [8] = experiment: Cellular repair of UV-induced cyclobutane pyrimidine dimers (immunofluorescence); type: cell-based, human; settings: 8 J/m^2 UV-C, up to 24 h post-irradiation
Protocol: Protocol of Mirzayans et al. was followed with minor modifications (30). Approximately 1×10^5 HCT116 cells were seeded on each coverslip and allowed to attach overnight. Medium was then removed and cells were treated for one hour with the desired compound. The medium was removed, and cells were exposed to 8 J/m^2 UV-C radiation (G15T8 254 nm lamp, Ushio America Inc, Cypress, Calif.) followed by adding fresh medium containing the compound. Plates were incubated at 37° C. for different periods of time up to 24 hours and fixed in 50:50 methanol/1× phosphate-buffered saline (PBS) solution, followed by replacing the methanol/PBS solution with 100% methanol and incubation in −20° C. After 20 minutes, methanol was removed, and cells were treated with PBS for 5 minutes in room temperature. After fixing, cells were permeabilized in 0.5% Triton/PBS and washed with PBS, denatured in 2 N HCl, and neutralized by twice washing with 0.1 M borate buffer pH 8.5. Cells on cover slips were washed once with PBS followed by blocking with 5% non-fat dry milk/PBS for 30 minutes. Mouse anti-thymine dimer monoclonal antibody (Cat. No. MC-062, Kamiya Biomedical Company, Seattle, Wash.) was applied to the cover slips for one hour in the dark and at room temperature. Cells were then washed with PBS containing 0.1% Tween-20 and incubated with rabbit anti-mouse IgG-Alexafluor antibody (Invitrogen, Carlsbad, Calif.) followed by two washes with PBS/(0.1%)Tween-20. Cells on coverslips were then washed with PBS, rinsed with water, and mounted on slides using DAPI glycerol mounting solution. Slides were kept at 4° C. before fluorescent microscopic evaluation and measurement of fluorescence intensity with MetaXpress Version: 6.2.1.704 software (Molecular Devices, Sunnyvale, Calif.).
To test for inhibition of nucleotide excision repair, we monitored the cellular removal of UVC-induced cyclobutane pyrimidine dimers (CPDs) in HCT116 cells over a 24-hour period using an immunochemical assay.

HCT116 cells [9] = experiment: Cytotoxicity profile: crystal violet viability assay (and colony forming assay); type: cell-based, human; settings: crystal violet staining; for Gen C1 also colony forming assay
Protocol: Crystal violet viability assays were carried out to assess the cellular toxicity of these compounds to HCT116 cells and to choose relatively non-cytotoxic concentrations to be further utilised in sensitizing cells to UV radiation or cyclophosphamide.
The beneficial effect is especially visible at a concentration of 5.0 μM. At higher concentrations, both compounds show an equal cytotoxic effect (FIG. 15).

In the case of `COc1ccc2nc3cc(Cl)ccc3c(Nc3ccc(O)c(CN4CCN(CCN(C(C)C)C(C)C)CC4)c3)c2c1` [Gen C-1, 4-((6-Chloro-2-methoxyacridin-9-yl)amino)-2-((4-(2-(diisopropylamino)ethyl)piperazin-1-yl)methyl)-phenol], the “Hepatocyte stability in vitro CLint (in words)” value [1] is reported as “(medium clearance)”, the “CVP inhibition (5 enzyme) (rating)” value [2] is reported as “Good” and the “inhibition of ERCC1-XPF endonuclease activity (in words)” value (ERCC1-XPF; compounds 10 μM each) is reported as “higher inhibitory effect”. The IC50 (ERCC1-XPF; full-length ERCC1-XPF, 30 minutes incubation, 5% DMSO, read-out: IC50 of ERCC1-XPF endonuclease activity) was 167 nM, the “Microsomal stability in vitro CLint (in words)” value [3] was “Low clearance” and the “sensitisation to cyclophosphamide, clonogenic survival (in words)” value (HCT116 cells [4]) was “significantly sensitised the HCT116 cells to cyclophosphamide; also recorded: significantly sensitized the cells to cyclophosphamide”. For the same compound, the “sensitisation to UV radiation, clonogenic survival (in words)” value (HCT116 cells [5]) was “significant sensitisation effect”, the “Serum protein binding (% bound)” value (serum proteins) was “(99.5) % bound” and the “Serum protein binding (in words)” value (serum proteins) was “Strong binding”. The “Solubility (in words)” value [6] was “Good”, the “LogD (rating)” value (ADME screening: LogD; Table 8) was “Good” and the “LogD (remark in the LogD row)” value (ADME screening: LogD; Table 8) was “(partially soluble)”. The logD (ADME screening: LogD; pH 7.4) was 3.95, the “Cell permeability (Mean recovery %) (in words)” value [7] was “Low” and the “inhibition of cellular removal of CPDs / thymidine dimers (in words)” value (HCT116 cells [8]) was “significant inhibition of removal of CPDs”. For the same compound, the “cytotoxicity (in words)” value (HCT116 cells [9]) was “lower cytotoxicity”.
